Assay type in all cases: in vivo
Data set [1] relates to two spotted spider mite (Tetranychus urticae). Nature of the data set: Activity against two spotted spider mite (TSSM), sprayed infested squash plants. The following applies: RATE 400 (ppm), three days after treatment, 4320 min. The method, then: (§1) In conducting evaluations of insecticidal activity, each test compound was formulated as a 400 ppm solution, and this solution was then diluted with water to give lesser concentrations. The 400 ppm solution was prepared by combining 19.2 mL of .05% solution of Tween 20 (polyoxyethylene (20) sorbitan monolaurate) in water with a solution of 8 mg of the compound in .8 mL of acetone/EtOH (9/1).
Activity against cotton aphid (Aphis gossypii) and two spotted spider mite (Tetranychus urticae) was evaluated as follows. Golden crookneck squash plants were grown to the expanded cotyledon stage (about 6 to 8 days). The plants were infested with cotton aphids and two spotted spider mites 16 to 24 hours before application of the test material by transfer of infested foliage cut from a stock colony. Immediately prior to spray application of the test material the transfer foliage is removed from the squash plants. The test is run using concentrations of 400 ppm and 50 ppm. The plants are sprayed with test solution using an atomizing sprayer at 17 psi. Both surfaces of the leaves are covered until runoff, and then allowed to dry. Activity of each compound was determined three days after treatment. Activity was rated as a percent based on the mites/aphids present in plants sprayed with solvent alone.

In data set [2] the test system is tobacco budworm (Heliothis virescens). Nature of the data set: Activity against tobacco budworm (TBW), sprayed diet cups with eggs. The method, then:
as §1
Activity against tobacco budworm (Heliothis virescens) was evaluated as follows. A general purpose lepidoptera artificial diet was diluted to half strength with a 5% non nutritive agar. 8 mL of this diet material was dispensed into each one ounce diet cup. One hour prior to treatment 18 to 20 eggs were dispensed onto the diet surface. The cups were then sprayed with formulated material through a flat-fan nozzle. […] Treated cups were air dried prior to sealing with plastic caps. The cups were held for 6 days at room temperature. Activity was then rated based on the total number of live and dead larvae, and on the size of live larvae.

Data set [3] has as its system Stomoxys calcitrans (stable fly). Nature of the data set: Adult stable fly test, serum-saturated dental wick. The following applies: readings at 24 and 48 hours, which one is reported is not stated; for Percentage of ASF killed at 100 ppm: 100 ppm in bovine serum; for Percentage of ASF killed at 10 ppm: 10 ppm in bovine serum. The method, then: The compound to be evaluated was dissolved in 1 part acetone/1 part ethanol to provide a stock solution of the compound at a concentration of 5,000 ppm; this solution was shaken for 15 minutes on a sonicator. Portions of the stock solution were placed in 15 ml test tubes, and portions of bovine serum were added to provide the desired dilution of the test compound. A dental wick was placed in each test tube and the serum allowed to saturate the wick.
For the adult stable fly test, the saturated wick was placed on a filter paper in a petri dish, and approximately 10 chilled live, hungry stable flies were placed on the center of the dish bottom. The dish was covered and allowed to incubate at 27°C and 60% relative humidity for 48 hours. Mortality readings were made at each of 24 and 48 hours, and adjusted for any mortality in the vehicle control to determine percent efficacy against adult stable fly.

“5,6-Dihydro Derivative of Compound 9-O-(2,3,4-Tri-O-ethyl-α-L-rhamnosyl) Spinosyn A 9-Psa [Example A1]”: the “% MORTALITY” value in data set [1] was 100%; in data set [2] (RATE 400 (ppm), 6 days) it was 100%.
As to 5,6-Dihydro Spinosyn J [Example F21], the “% MORTALITY” value in data set [2] (RATE 400 (ppm), 6 days) was 100%. Also, the “Percentage of ASF killed at 100 ppm” value in data set [3] is listed as 100%.
Regarding “5,6-cis Dihydroxy-5,6-dihydro Spinosyn B [Example F12]”, the “% MORTALITY” value in data set [2] (RATE 400 (ppm), 6 days) was 100%. Besides, in data set [3], the “Percentage of ASF killed at 100 ppm” value came out at 100%.
For the molecule `CCC1CCCC(OC2CCC(N(C)C)C(C)O2)C(C)C(=O)C2=CC3C4CC(OC5OC(C)C(OC)C(OC)C5OC(=O)c5ccc(C(F)(F)F)cc5)CC4[C@@]4(C)O[C@H]4C3C2CC(=O)O1` (stereo partly drawn) [Example A2, (5S,6R)-Epoxy-2'-O-(p-trifluoromethyl)benzoyl Spinosyn Q], the “% MORTALITY” value in data set [2] (RATE 400 (ppm), 6 days) is recorded as 100%. In addition, the “Percentage of ASF killed at 100 ppm” value in data set [3] turned out to be 100%.
For `CCOC1C(OC)C(C)OC(OC2CC3CCC4C5CC(=O)OC(CC)CCCC(OC6CCC(N(C)C)C(C)O6)C(C)C(=O)C5=CC4C3C2)C1OC` (stereo not shown) [Example A3, 5,6-Dihydro-3'-O-ethyl Spinosyn J], the “% MORTALITY” value is listed as 100% in data set [1] and 100% in data set [2] (RATE 400 (ppm), 6 days).
Consider `CCCOC1C(OC)C(C)OC(OC2CC3CCC4C5CC(=O)OC(CC)CCCC(OC6CCC(N(C)C)C(C)O6)C(C)C(=O)C5=CC4C3C2)C1OC` (stereo not shown) [Example A4, 5,6-Dihydro-3'-O-n-propyl Spinosyn J], for which the “% MORTALITY” value was 100% in data set [1] and 100% in data set [2] (RATE 400 (ppm), 6 days).
Take `CCCCOC1C(OC)C(C)OC(OC2CC3CCC4C5CC(=O)OC(CC)CCCC(OC6CCC(N(C)C)C(C)O6)C(C)C(=O)C5=CC4C3C2)C1OC` (stereo not shown) [Example A5, 5,6-Dihydro-3'-O-n-butyl Spinosyn J]: the “% MORTALITY” value in data set [2] (RATE 400 (ppm), 6 days) was 100%.
On to `CCCOC1C(OC)C(C)OC(OC2CC3CCC4C5CC(=O)OC(CC)CCCC(OC6CCC(N(C)C)C(C)O6)C(C)C(=O)C5=CC4C3C2)C1OC.CCCOC1C(OC)C(C)OC(OC2CC3CCC4C5CC(=O)OC(CC)CCCC(OC6CCC(N(C)C)C(C)O6)C(C)C(=O)C5=CC4C3C2)C1OC.O=C(O)CCCC(=O)O` (stereo not shown) [Example A6, 5,6-Dihydro-3'-O-n-propyl Spinosyn J Hemiglutarate salt], for which the “% MORTALITY” value in data set [1] worked out at 100%; in data set [2] (RATE 400 (ppm), 6 days), 100%. Besides, the “Percentage of ASF killed at 100 ppm” value in data set [3] turned out to be 100%.
For `CCOC1C(OC2CC3CCC4C5CC(=O)OC(CC)CCCC(OC6CCC(N(C)C)C(C)O6)C(C)C(=O)C5=CC4C3C2)OC(C)C(OC)C1OC` (stereo not shown) [Example A7, 5,6-Dihydro-2'-O-ethyl Spinosyn H], the “% MORTALITY” value in data set [1] stood at 100%; in data set [2] (RATE 400 (ppm), 6 days), 100%. For the same molecule, in data set [3], the “Percentage of ASF killed at 100 ppm” value is 100%.
Take `CCCOC1C(OC2CC3CCC4C5CC(=O)OC(CC)CCCC(OC6CCC(N(C)C)C(C)O6)C(C)C(=O)C5=CC4C3C2)OC(C)C(OC)C1OC` (stereo not shown) [Example A8, 5,6-Dihydro-2'-O-n-propyl Spinosyn H]: the “% MORTALITY” value in data set [1] amounted to 100%; in data set [2] (RATE 400 (ppm), 6 days), 100%. Moreover, the “Percentage of ASF killed at 100 ppm” value in data set [3] stood at 100%.
Consider `CC[C@H]1CCC[C@H](O[C@H]2CC[C@H](N(C)C)[C@@H](C)O2)[C@@H](C)C(=O)[C@@H]2C[C@@H]3[C@@H](CC[C@@H]4C[C@@H](O[C@@H]5O[C@@H](C)[C@H](OC)[C@@H](OC)[C@H]5OC)C[C@H]43)[C@@H]2CC(=O)O1` [Example D2, (14R)-5,6,13,14-Tetrahydro Spinosyn A], for which, in data set [3], the “Percentage of ASF killed at 10 ppm” value was below 50% and the “Percentage of ASF killed at 100 ppm” value turned out to be 100%.
Consider `CCC1CCCC(OC2CCC(N(C)C)C(C)O2)C(C)C(=O)[C@H]2CC3C4CC(OC5OC(C)C(OC)CC5OC)CC4CCC3C2CC(=O)O1` (stereo partly drawn) [Example D3, (14S)-5,6,13,14-Tetrahydro-3'-deoxy Spinosyn J], for which the “% MORTALITY” value in data set [2] (RATE 64 (unit not given), 8640 min) worked out at 95%. Moreover, the “Percentage of ASF killed at 100 ppm” value in data set [3] is 100%.
In the case of `CCC1CCCC(O[Si](C)(C)C)C(C)C(=O)C2=CC3C4CC(OC5OC(C)C(OC)C(OC)C5OC)CC4C4OC4C3C2CC(=O)O1` [Example E2, (5S,6R)-5,6-Epoxy-17-O-trimethylsilyl Spinosyn A 17-Psa], in data set [2] (RATE 80 (unit not given), 8640 min), the “% MORTALITY” value came to 35%.
On to `CC[C@H]1CCC[C@H](O)[C@@H](C)C(=O)C2=C[C@H]3[C@@H]4C[C@H](O[C@@H]5O[C@@H](C)[C@H](OC)[C@@H](OC)[C@H]5OC)C[C@H]4C(Br)C(Br)[C@H]3[C@@H]2CC(=O)O1` (stereo partly shown) [Example F5, 5,6-Dibromo Spinosyn A 17-Psa], for which, in data set [3], the “Percentage of ASF killed at 10 ppm” value is on record as below 50%.
Consider `CCC1CCCC(OC2CCC(N(C)C)C(C)O2)C(C)C(=O)C2=CC3C4CC(OC5OC(C)C(OC)C(OC)C5OC)CC4[C@@]4(C)O[C@H]4C3C2CC(=O)O1` (stereo partly drawn) [Example F8a, (5S,6R)-Epoxy Spinosyn D], for which the “% MORTALITY” value in data set [1] is given as 90%; in data set [2] (RATE 400 (ppm), 6 days), 100%.
As for `CC[C@H]1CCC[C@H](O[C@H]2CCC(=O)[C@@H](C)O2)[C@@H](C)C(=O)C2=C[C@H]3[C@@H]4C[C@H](O[C@@H]5O[C@@H](C)[C@H](OC)[C@@H](OC)[C@H]5OC)C[C@H]4[C@@H](Br)[C@H](Br)[C@H]3[C@@H]2CC(=O)O1` [Example F11a, (5R,6R)-5,6-dibromo-4''-keto Spinosyn A], in data set [3], the “Percentage of ASF killed at 100 ppm” value was below 50%.
As to `CCC1CCCC(OC2CCC(N(C)C)C(C)O2)C(C)C(=O)C2=CC3C4CC(OC5OC(C)C(OC)C(OC)C5OC)CC4[C@@H](OC(=O)C(Cl)(Cl)Cl)[C@@H](OC(=O)C(Cl)(Cl)Cl)C3C2CC(=O)O1` (stereo partly drawn) [Example F13b, (5S,6R)-5,6-bis(trichloroacetoxy) Spinosyn A], the “% MORTALITY” value in data set [2] (RATE 400 (ppm), 6 days) came out at 60%.
Turning to `CCC1CCCC(OC2CCC(N(C)C)C(C)O2)C(C)C(=O)C2=CC3C4CC(OC5OC(C)C(OC)C(OC)C5OC)CC4[C@@H](Br)[C@H](Br)C3C2CC(=O)O1` (stereo partly drawn) [Example F14, (5R,6R)-5,6-Dibromo Spinosyn A], the “% MORTALITY” value in data set [2] (RATE 400 (ppm), 6 days) is given as 60%. The “Percentage of ASF killed at 100 ppm” value in data set [3] came to 100%.
Consider `CCC1CCCC(OC2CCC(N(C)C)C(C)O2)C(C)C(=O)C2=CC3C4CC(OC5OC(C)C(OC)C(OC)C5OC)CC4C[C@H](O)C3C2CC(=O)O1` (stereo partly drawn) [Example F15a, (5S)-5,6-dihydro-5-hydroxy Spinosyn A], for which the “% MORTALITY” value in data set [2] (RATE 400 (ppm), 6 days) amounted to 100%.
As to `CCC1CCCC(OC2CCC(N(C)C)C(C)O2)C(C)C(=O)C2=CC3C4CC(OC5OC(C)C(OC)C(OC)C5OC)CC4[C@@H](SC)[C@H](OC(C)=O)C3C2CC(=O)O1` (stereo partly drawn) [Example F16, (5R,6R)-5-Acetoxy-6-thiomethoxy Spinosyn A], the “% MORTALITY” value in data set [2] (RATE 400 (ppm), 6 days) was 100%. In data set [3], the “Percentage of ASF killed at 100 ppm” value was 100%.
On to `CCC1CCCC(OC2CCC(N(C)C)C(C)O2)C(C)C(=O)C2=CC3C4CC(OC5OC(C)C(OC)C(OC)C5OC)CC4[C@@H](S(C)(=O)=O)[C@H](OC(C)=O)C3C2CC(=O)O1` (stereo partly drawn) [Example F17, (5R,6R)-5-Acetoxy-6-methylsulfonyl Spinosyn A], for which the “% MORTALITY” value in data set [2] (RATE 400 (ppm), 6 days) was found to be 100%. For the same molecule, the “Percentage of ASF killed at 100 ppm” value in data set [3] was 100%.
Take `CCC1CCCC(OC2CCC(N(C)C)C(C)O2)C(C)C(=O)C2=CC3C4CC(O)CC4CCC3C2CC(=O)O1` (stereo not shown) [Example F19, 5,6-Dihydro Spinosyn A 9-Psa]: the “% MORTALITY” value in data set [2] (RATE 400 (ppm), 6 days) was 100%.
For the molecule `CC[C@H]1CCC[C@H](O)[C@@H](C)C(=O)C2=C[C@H]3[C@@H]4C[C@H](O[C@@H]5O[C@@H](C)[C@H](OC)[C@@H](OC)[C@H]5OC)C[C@H]4CC[C@H]3[C@@H]2CC(=O)O1` [Example F20, 5,6-Dihydro Spinosyn A 17-Psa], in data set [3], the “Percentage of ASF killed at 100 ppm” value is reported as below 50%.
Turning to `CCC1CCCC(OC2CCC(N(C)C)C(C)O2)C(C)C(=O)C2=CC3C4CC(OC5OC(C)C(OC)C(OC)C5O)CC4CCC3C2CC(=O)O1` (stereo not shown) [Example F22, 5,6-Dihydro Spinosyn H], the “% MORTALITY” value in data set [2] (RATE 400 (ppm), 6 days) turned out to be 100%. Further, the “Percentage of ASF killed at 100 ppm” value in data set [3] is recorded as 100%.
For the molecule “(5R,6R)-5,6-dibromo Spinosyn B [Example F11b]”, the “% MORTALITY” value in data set [2] (RATE 400 (ppm), 6 days) is 100%. Also, the “Percentage of ASF killed at 100 ppm” value in data set [3] came to 100%.
As for “(5R,6R)-6-Bromo-5-hydroxy Spinosyn J [Example F18]”, in data set [2] (RATE 400 (ppm), 6 days), the “% MORTALITY” value was found to be 100%. Further, the “Percentage of ASF killed at 100 ppm” value in data set [3] was 100%.
Consider (5S,6R)-Epoxy-Spinosyn Q [Example F25], for which the “% MORTALITY” value in data set [2] (RATE 400 (ppm), 6 days) is recorded as 100%.
Still for that read-out and setting: the value for “dichloroketene acetal of (5S,6R)-5,6-dihydroxy Spinosyn A [Example F13a]” was 100%.
